Assays:
Assay in all cases: relative viability (nuclei count vs DMSO), 5 days (fraction); higher = more cells survive
[1] = tested on: HCC-827
Method in brief: (§1)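 One day after seeding in 1536-well plates, lung cancer cell lines were dosed by pin tool. Dosing was either single-drug or a fixed anchor-drug dose plus five library-drug doses (not always all listed) in √10 steps. After 5 days, nuclei were stained in one fix-and-stain step and counted on 4× images, and relative viability is the nuclei count of treated wells over that of vehicle wells, given as the median of duplicate plates.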

[2] = tested on: NCI-H647
Method in brief: as §1

[3] = tested on: EPLC-272H
Method in brief: as §1

[4] = tested on: NCI-H2170
Method in brief: as §1

[5] = tested on: 201T
Method in brief: as §1

[6] = tested on: LOU-NH91
Method in brief: as §1

[7] = tested on: NCI-H1437
Method in brief: as §1

[8] = tested on: BEN
Method in brief: as §1

[9] = tested on: LU99A
Method in brief: as §1

[10] = tested on: H3255
Method in brief: as §1

[11] = tested on: EKVX
Method in brief: as §1

[12] = tested on: NCI-H2342
Method in brief: as §1

[13] = tested on: HCC-44
Method in brief: as §1

[14] = tested on: NCI-H1975
Method in brief: as §1

[15] = tested on: LCLC-97TM1
Method in brief: as §1

[16] = tested on: NCI-H650
Method in brief: as §1

[17] = tested on: NCI-H2087
Method in brief: as §1

[18] = tested on: COR-L 105
Method in brief: as §1

[19] = tested on: PC-3 [JPC-3]
Method in brief: as §1

[20] = tested on: SW 1573
Method in brief: as §1

[21] = tested on: NCI-H1666
Method in brief: as §1

[22] = tested on: NCI-H2085
Method in brief: as §1

Structure (SMILES): COc1cc2nccc(Oc3ccc(NC(=O)Nc4cc(C)on4)c(Cl)c3)c2cc1OC [Tivozanib] + CC(=O)Nc1cccc(-n2c(=O)n(C3CC3)c(=O)c3c(Nc4ccc(I)cc4F)n(C)c(=O)c(C)c32)c1 [Trametinib] (partner 0.02 µM)
- relative viability ([1]; first compound 0.005 µM): 0.52
- relative viability ([1]; first compound 0.01581 µM): 0.543
- relative viability ([1]; first compound 0.05 µM): 0.571
- relative viability ([1]; first compound 0.1581 µM): 0.527
- relative viability ([1]; first compound 0.5 µM): 0.533
- relative viability ([2]; first compound 0.005 µM): 0.521
- relative viability ([2]; first compound 0.01581 µM): 0.461
- relative viability ([2]; first compound 0.05 µM): 0.483
- relative viability ([2]; first compound 0.1581 µM): 0.408
- relative viability ([2]; first compound 0.5 µM): 0.49
- relative viability ([3]; first compound 0.005 µM): 0.243
- relative viability ([3]; first compound 0.01581 µM): 0.277
- relative viability ([3]; first compound 0.05 µM): 0.27
- relative viability ([3]; first compound 0.1581 µM): 0.235
- relative viability ([3]; first compound 0.5 µM): 0.246
- relative viability ([4]; first compound 0.005 µM): 0.827
- relative viability ([4]; first compound 0.01581 µM): 0.92
- relative viability ([4]; first compound 0.05 µM): 0.893
- relative viability ([4]; first compound 0.5 µM): 0.983
- relative viability ([5]; first compound 0.005 µM): 0.691
- relative viability ([5]; first compound 0.01581 µM): 0.759
- relative viability ([5]; first compound 0.05 µM): 0.681
- relative viability ([5]; first compound 0.1581 µM): 0.717
- relative viability ([5]; first compound 0.5 µM): 0.784
- relative viability ([6]; first compound 0.005 µM): 0.736
- relative viability ([6]; first compound 0.01581 µM): 0.805
- relative viability ([6]; first compound 0.05 µM): 0.784
- relative viability ([6]; first compound 0.1581 µM): 0.744
- relative viability ([6]; first compound 0.5 µM): 0.767
- relative viability ([7]; first compound 0.005 µM): 0.567
- relative viability ([7]; first compound 0.01581 µM): 0.535
- relative viability ([7]; first compound 0.05 µM): 0.592
- relative viability ([7]; first compound 0.1581 µM): 0.49
- relative viability ([7]; first compound 0.5 µM): 0.522
- relative viability ([8]; first compound 0.005 µM): 1.13
- relative viability ([8]; first compound 0.01581 µM): 1.1
- relative viability ([8]; first compound 0.05 µM): 0.961
- relative viability ([8]; first compound 0.1581 µM): 0.903
- relative viability ([8]; first compound 0.5 µM): 1
- relative viability ([9]; first compound 0.005 µM): 0.626
- relative viability ([9]; first compound 0.01581 µM): 0.496
- relative viability ([9]; first compound 0.05 µM): 0.61
- relative viability ([9]; first compound 0.1581 µM): 0.396
- relative viability ([9]; first compound 0.5 µM): 0.563
- relative viability ([10]; first compound 0.005 µM): 0.531
- relative viability ([10]; first compound 0.01581 µM): 0.61
- relative viability ([10]; first compound 0.05 µM): 0.659
- relative viability ([10]; first compound 0.1581 µM): 0.608
- relative viability ([10]; first compound 0.5 µM): 0.59
- relative viability ([11]; first compound 0.005 µM): 0.32
- relative viability ([11]; first compound 0.01581 µM): 0.467
- relative viability ([11]; first compound 0.05 µM): 0.477
- relative viability ([11]; first compound 0.1581 µM): 0.292
- relative viability ([11]; first compound 0.5 µM): 0.345
- relative viability ([12]; first compound 0.005 µM): 0.823
- relative viability ([12]; first compound 0.01581 µM): 0.834
- relative viability ([12]; first compound 0.05 µM): 1.92
- relative viability ([12]; first compound 0.5 µM): 0.733
- relative viability ([13]; first compound 0.005 µM): 0.992
- relative viability ([13]; first compound 0.01581 µM): 1.09
- relative viability ([13]; first compound 0.05 µM): 1.05
- relative viability ([13]; first compound 0.1581 µM): 1.09
- relative viability ([13]; first compound 0.5 µM): 1.07
- relative viability ([14]; first compound 0.005 µM): 0.296
- relative viability ([14]; first compound 0.01581 µM): 0.39
- relative viability ([14]; first compound 0.05 µM): 0.442
- relative viability ([14]; first compound 0.1581 µM): 0.256
- relative viability ([14]; first compound 0.5 µM): 0.312
- relative viability ([15]; first compound 0.005 µM): 0.15
- relative viability ([15]; first compound 0.01581 µM): 0.194
- relative viability ([15]; first compound 0.05 µM): 0.206
- relative viability ([15]; first compound 0.1581 µM): 0.165
- relative viability ([15]; first compound 0.5 µM): 0.273
- relative viability ([16]; first compound 0.005 µM): 0.942
- relative viability ([16]; first compound 0.01581 µM): 1.05
- relative viability ([16]; first compound 0.05 µM): 1.05
- relative viability ([16]; first compound 0.1581 µM): 0.97
- relative viability ([16]; first compound 0.5 µM): 0.909
- relative viability ([17]; first compound 0.005 µM): 0.147
- relative viability ([17]; first compound 0.01581 µM): 0.211
- relative viability ([17]; first compound 0.05 µM): 0.193
- relative viability ([17]; first compound 0.1581 µM): 0.166
- relative viability ([17]; first compound 0.5 µM): 0.243
- relative viability ([18]; first compound 0.005 µM): 0.417
- relative viability ([18]; first compound 0.01581 µM): 0.451
- relative viability ([18]; first compound 0.05 µM): 0.454
- relative viability ([18]; first compound 0.1581 µM): 0.482
- relative viability ([18]; first compound 0.5 µM): 0.494
- relative viability ([19]; first compound 0.01581 µM): 0.686
- relative viability ([19]; first compound 0.05 µM): 0.807
- relative viability ([19]; first compound 0.1581 µM): 0.674
- relative viability ([19]; first compound 0.5 µM): 0.811
- relative viability ([20]; first compound 0.005 µM): 0.541
- relative viability ([20]; first compound 0.01581 µM): 0.644
- relative viability ([20]; first compound 0.05 µM): 0.464
- relative viability ([20]; first compound 0.1581 µM): 0.457
- relative viability ([20]; first compound 0.5 µM): 0.416
- relative viability ([21]; first compound 0.005 µM): 0.839
- relative viability ([21]; first compound 0.01581 µM): 0.78
- relative viability ([21]; first compound 0.05 µM): 0.977
- relative viability ([21]; first compound 0.1581 µM): 0.922
- relative viability ([21]; first compound 0.5 µM): 0.862
- relative viability ([22]; first compound 0.005 µM): 0.51
- relative viability ([22]; first compound 0.01581 µM): 0.602
- relative viability ([22]; first compound 0.05 µM): 0.543
- relative viability ([22]; first compound 0.1581 µM): 0.437
- relative viability ([22]; first compound 0.5 µM): 0.511

Source: the supplement of paper PMC10307832
